Data as given in publication PMC7180948, “New Insights into 4-Anilinoquinazolines as Inhibitors of Cardiac Troponin I–Interacting Kinase (TNNi3K)” (Molecules, 2020).

Key:
ZAK = target: T1, ZAK (Homo sapiens, UniProt Q9NYL2); assay: KINOMEscan at […], single concentration; type: binding
T1 construct: gene MAP3K20

PDFRB = target: T2, PDFRB (Homo sapiens, UniProt P09619); assay: KINOMEscan at […], single concentration; type: binding
T2 construct: gene PDGFRB

PKN1 = PKN1 (Homo sapiens, UniProt Q16512); assay: biochemical; parameters: KINOMEscan competition binding panel (Eurofins DiscoverX), single concentration, percent inhibition; conditions: read-out: 15 at 1 µM % inhibition
Summary of the method: (§1)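 Binding was profiled in the KINOMEscan panel of over 400 human kinases, with each compound tested at a single concentration of 1 µM to map selectivity.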

NEK3 = NEK3 (Homo sapiens, UniProt P51956); assay: biochemical; parameters: KINOMEscan competition binding panel (Eurofins DiscoverX), single concentration, percent inhibition; conditions: read-out: 15 at 1 µM % inhibition
Summary of the method: as §1

CDK11 = target: T3, CDK11 (Homo sapiens, UniProt Q9BWU1); assay: biochemical; parameters: KINOMEscan competition binding panel (Eurofins DiscoverX), single concentration, percent inhibition; conditions: read-out: 15 at 1 µM % inhibition
T3 construct: gene CDK19
T3 sequence (Q9BWU1 whole entry): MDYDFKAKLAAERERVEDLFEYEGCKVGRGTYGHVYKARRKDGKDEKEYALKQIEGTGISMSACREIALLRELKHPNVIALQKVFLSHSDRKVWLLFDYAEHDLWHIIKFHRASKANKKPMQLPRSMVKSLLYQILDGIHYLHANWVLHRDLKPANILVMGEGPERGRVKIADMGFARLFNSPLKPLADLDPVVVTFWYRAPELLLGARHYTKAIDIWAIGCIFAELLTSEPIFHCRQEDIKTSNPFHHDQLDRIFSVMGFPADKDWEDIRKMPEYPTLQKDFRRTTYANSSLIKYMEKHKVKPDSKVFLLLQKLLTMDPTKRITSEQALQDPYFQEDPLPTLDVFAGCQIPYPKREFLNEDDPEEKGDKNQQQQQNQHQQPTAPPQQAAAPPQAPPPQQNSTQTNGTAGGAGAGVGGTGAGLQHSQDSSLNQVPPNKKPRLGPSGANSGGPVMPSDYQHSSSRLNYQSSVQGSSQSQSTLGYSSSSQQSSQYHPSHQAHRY
Summary of the method: as §1

PAK2 = PAK2 (Homo sapiens, UniProt Q13177); assay: biochemical; parameters: KINOMEscan competition binding panel (Eurofins DiscoverX), single concentration, percent inhibition; conditions: read-out: 15 at 1 µM % inhibition
Sequence of PAK2 (Q13177 whole entry): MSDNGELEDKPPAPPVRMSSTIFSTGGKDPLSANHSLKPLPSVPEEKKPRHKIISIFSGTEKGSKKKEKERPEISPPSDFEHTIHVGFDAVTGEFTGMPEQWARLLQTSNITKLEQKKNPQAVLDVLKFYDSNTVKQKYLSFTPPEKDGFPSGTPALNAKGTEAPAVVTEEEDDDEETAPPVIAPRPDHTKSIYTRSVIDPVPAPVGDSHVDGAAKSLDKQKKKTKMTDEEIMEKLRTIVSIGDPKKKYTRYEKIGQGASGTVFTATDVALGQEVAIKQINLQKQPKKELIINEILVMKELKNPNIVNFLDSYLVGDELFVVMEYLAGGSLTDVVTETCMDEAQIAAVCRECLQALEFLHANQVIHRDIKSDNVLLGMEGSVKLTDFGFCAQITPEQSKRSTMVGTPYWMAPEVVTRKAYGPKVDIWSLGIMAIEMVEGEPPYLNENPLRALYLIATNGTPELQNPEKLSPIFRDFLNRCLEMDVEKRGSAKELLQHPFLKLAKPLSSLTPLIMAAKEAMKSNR
Summary of the method: as §1

NEK1 = NEK1 (Homo sapiens, UniProt Q96PY6); assay: biochemical; parameters: KINOMEscan competition binding panel (Eurofins DiscoverX), single concentration, percent inhibition; conditions: read-out: 15 at 1 µM % inhibition
Summary of the method: as §1

WNK4 = WNK4 (Homo sapiens, UniProt Q96J92); assay: biochemical; parameters: KINOMEscan competition binding panel (Eurofins DiscoverX), single concentration, percent inhibition; conditions: read-out: 15 at 1 µM % inhibition
Summary of the method: as §1

[1] = target: T4, ABL1(F317L)-phosphorylated (Homo sapiens, UniProt P00519, F317L); assay: biochemical; parameters: KINOMEscan competition binding panel (Eurofins DiscoverX), single concentration, percent inhibition; conditions: read-out: 15 at 1 µM % inhibition
T4 construct: phosphorylated
T4 sequence (P00519 whole entry F317L): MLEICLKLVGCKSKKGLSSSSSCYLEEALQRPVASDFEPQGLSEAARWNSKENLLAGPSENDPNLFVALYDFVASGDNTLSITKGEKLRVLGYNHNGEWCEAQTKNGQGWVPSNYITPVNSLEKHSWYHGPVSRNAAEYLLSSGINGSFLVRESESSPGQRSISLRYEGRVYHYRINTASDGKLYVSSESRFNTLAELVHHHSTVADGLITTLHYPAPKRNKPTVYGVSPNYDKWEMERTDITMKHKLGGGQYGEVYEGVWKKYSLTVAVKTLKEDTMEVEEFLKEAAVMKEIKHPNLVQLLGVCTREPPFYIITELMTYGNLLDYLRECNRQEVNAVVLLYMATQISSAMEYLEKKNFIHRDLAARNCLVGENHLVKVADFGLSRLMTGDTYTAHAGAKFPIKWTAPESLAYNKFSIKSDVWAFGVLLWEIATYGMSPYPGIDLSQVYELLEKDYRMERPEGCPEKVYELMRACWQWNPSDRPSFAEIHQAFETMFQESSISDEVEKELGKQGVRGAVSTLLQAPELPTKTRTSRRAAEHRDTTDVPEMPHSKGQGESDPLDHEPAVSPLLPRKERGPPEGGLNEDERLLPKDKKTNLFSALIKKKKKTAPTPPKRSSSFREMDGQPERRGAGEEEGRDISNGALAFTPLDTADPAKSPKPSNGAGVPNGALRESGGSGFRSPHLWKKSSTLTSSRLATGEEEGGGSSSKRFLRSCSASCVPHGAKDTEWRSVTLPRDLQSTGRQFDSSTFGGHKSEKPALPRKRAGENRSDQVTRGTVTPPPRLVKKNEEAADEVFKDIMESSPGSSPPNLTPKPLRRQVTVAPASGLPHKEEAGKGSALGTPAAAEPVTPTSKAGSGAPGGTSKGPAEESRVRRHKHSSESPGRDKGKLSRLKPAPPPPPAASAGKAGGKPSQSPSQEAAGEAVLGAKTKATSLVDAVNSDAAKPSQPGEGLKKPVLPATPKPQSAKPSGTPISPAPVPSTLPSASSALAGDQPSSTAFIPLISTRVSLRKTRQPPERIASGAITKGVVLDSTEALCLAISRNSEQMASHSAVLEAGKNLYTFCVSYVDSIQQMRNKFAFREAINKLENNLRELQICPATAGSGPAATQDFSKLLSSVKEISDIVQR
Summary of the method: as §1

MEK3 = target: T5, MEK3 (Homo sapiens, UniProt P46734); assay: biochemical; parameters: KINOMEscan competition binding panel (Eurofins DiscoverX), single concentration, percent inhibition; conditions: read-out: 15 at 1 µM % inhibition
T5 construct: gene MAP2K3
T5 sequence (P46734 whole entry): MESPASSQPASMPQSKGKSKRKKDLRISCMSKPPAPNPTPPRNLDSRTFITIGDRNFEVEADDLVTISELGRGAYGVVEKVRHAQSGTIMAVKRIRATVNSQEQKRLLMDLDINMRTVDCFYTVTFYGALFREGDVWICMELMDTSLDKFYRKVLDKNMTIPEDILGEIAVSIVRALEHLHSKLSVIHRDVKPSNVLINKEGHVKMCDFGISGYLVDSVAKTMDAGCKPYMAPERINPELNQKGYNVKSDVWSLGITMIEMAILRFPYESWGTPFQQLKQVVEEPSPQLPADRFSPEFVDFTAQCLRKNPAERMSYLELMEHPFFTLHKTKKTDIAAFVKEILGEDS
Summary of the method: as §1

ERBB4 = ERBB4 (Homo sapiens, UniProt Q15303); assay: biochemical; parameters: KINOMEscan competition binding panel (Eurofins DiscoverX), single concentration, percent inhibition; conditions: read-out: 15 at 1 µM % inhibition
Summary of the method: as §1

CDK3 = CDK3 (Homo sapiens, UniProt Q00526); assay: biochemical; parameters: KINOMEscan competition binding panel (Eurofins DiscoverX), single concentration, percent inhibition; conditions: read-out: 15 at 1 µM % inhibition
Sequence of CDK3 (Q00526 whole entry): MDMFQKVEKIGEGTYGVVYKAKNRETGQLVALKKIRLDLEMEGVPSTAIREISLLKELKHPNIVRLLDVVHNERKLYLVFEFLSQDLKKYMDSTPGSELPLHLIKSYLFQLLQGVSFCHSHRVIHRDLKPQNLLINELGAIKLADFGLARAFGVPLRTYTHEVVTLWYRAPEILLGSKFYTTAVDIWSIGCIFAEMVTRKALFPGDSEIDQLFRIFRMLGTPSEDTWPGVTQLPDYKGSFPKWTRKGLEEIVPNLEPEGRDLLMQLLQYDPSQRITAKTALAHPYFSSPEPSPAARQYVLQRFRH
Summary of the method: as §1

AURKC = AURKC (Homo sapiens, UniProt Q9UQB9); assay: biochemical; parameters: KINOMEscan competition binding panel (Eurofins DiscoverX), single concentration, percent inhibition; conditions: read-out: 15 at 1 µM % inhibition
Sequence of AURKC (Q9UQB9 whole entry): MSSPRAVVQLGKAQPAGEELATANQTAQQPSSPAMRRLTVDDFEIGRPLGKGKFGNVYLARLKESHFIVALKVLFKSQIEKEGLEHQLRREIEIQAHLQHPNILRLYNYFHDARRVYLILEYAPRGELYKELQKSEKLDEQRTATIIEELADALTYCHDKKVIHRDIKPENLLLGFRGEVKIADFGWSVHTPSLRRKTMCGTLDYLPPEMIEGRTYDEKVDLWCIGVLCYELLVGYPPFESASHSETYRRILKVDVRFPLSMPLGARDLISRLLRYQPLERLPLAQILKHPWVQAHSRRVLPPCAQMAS
Summary of the method: as §1

LRRK2 = LRRK2 (Homo sapiens, UniProt Q5S007); assay: biochemical; parameters: KINOMEscan competition binding panel (Eurofins DiscoverX), single concentration, percent inhibition; conditions: read-out: 15 at 1 µM % inhibition
Summary of the method: as §1

EPHA7 = EPHA7 (Homo sapiens, UniProt Q15375); assay: biochemical; parameters: KINOMEscan competition binding panel (Eurofins DiscoverX), single concentration, percent inhibition; conditions: read-out: 15 at 1 µM % inhibition
Sequence of EPHA7 (Q15375 whole entry): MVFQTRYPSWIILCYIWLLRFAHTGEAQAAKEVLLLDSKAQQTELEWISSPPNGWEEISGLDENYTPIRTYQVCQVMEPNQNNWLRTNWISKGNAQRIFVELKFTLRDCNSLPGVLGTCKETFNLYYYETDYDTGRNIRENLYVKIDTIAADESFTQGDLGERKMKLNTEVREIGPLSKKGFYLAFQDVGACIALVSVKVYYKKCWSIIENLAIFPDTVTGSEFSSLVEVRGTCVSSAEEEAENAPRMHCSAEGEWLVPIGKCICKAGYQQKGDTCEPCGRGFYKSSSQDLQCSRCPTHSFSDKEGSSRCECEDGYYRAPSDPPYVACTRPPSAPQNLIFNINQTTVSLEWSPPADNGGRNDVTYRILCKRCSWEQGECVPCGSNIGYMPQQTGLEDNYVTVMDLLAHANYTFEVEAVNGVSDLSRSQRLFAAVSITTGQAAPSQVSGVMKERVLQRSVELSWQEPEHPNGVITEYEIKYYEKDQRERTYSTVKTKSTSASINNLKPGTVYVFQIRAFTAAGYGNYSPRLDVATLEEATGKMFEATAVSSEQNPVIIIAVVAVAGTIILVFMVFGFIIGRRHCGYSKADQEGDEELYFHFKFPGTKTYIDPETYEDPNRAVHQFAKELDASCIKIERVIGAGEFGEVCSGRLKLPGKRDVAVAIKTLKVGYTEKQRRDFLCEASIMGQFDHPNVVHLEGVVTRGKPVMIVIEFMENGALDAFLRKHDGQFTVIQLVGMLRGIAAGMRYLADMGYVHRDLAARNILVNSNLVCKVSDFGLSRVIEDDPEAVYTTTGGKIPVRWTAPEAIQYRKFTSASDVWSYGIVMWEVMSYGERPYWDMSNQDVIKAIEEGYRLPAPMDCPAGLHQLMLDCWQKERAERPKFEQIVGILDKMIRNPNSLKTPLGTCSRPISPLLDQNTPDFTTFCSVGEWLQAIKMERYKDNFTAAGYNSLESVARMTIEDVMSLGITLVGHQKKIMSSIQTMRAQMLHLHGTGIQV
Summary of the method: as §1

TNK1 = TNK1 (Homo sapiens, UniProt Q13470); assay: biochemical; parameters: KINOMEscan competition binding panel (Eurofins DiscoverX), single concentration, percent inhibition; conditions: read-out: 15 at 1 µM % inhibition
Summary of the method: as §1

CDC2L2 = target: T6, CDC2L2 (Homo sapiens, UniProt Q9UQ88); assay: biochemical; parameters: KINOMEscan competition binding panel (Eurofins DiscoverX), single concentration, percent inhibition; conditions: read-out: 15 at 1 µM % inhibition
T6 construct: gene CDK11A
T6 sequence (Q9UQ88 whole entry): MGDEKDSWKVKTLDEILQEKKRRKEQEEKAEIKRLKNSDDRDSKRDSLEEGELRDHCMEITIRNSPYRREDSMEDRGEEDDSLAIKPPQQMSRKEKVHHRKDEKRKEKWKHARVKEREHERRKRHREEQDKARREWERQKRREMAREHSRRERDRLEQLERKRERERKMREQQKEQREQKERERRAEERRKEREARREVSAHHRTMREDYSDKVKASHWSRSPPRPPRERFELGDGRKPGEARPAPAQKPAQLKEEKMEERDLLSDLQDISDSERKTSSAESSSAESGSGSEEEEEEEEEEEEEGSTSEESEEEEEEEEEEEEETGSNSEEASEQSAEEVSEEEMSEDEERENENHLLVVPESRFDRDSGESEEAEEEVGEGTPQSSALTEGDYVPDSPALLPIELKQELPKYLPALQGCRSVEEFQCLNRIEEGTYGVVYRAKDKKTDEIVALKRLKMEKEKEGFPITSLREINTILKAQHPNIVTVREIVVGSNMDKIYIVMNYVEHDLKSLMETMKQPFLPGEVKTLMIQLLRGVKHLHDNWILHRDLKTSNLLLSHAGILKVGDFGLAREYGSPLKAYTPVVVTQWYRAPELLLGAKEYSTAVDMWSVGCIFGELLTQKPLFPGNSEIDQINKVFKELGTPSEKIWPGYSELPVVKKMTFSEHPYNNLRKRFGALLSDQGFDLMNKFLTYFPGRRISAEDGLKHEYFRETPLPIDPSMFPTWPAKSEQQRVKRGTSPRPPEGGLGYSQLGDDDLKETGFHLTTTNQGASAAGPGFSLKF
Summary of the method: as §1

HIPK1 = HIPK1 (Homo sapiens, UniProt Q86Z02); assay: biochemical; parameters: KINOMEscan competition binding panel (Eurofins DiscoverX), single concentration, percent inhibition; conditions: read-out: 15 at 1 µM % inhibition
Summary of the method: as §1

NEK7 = NEK7 (Homo sapiens, UniProt Q8TDX7); assay: biochemical; parameters: KINOMEscan competition binding panel (Eurofins DiscoverX), single concentration, percent inhibition; conditions: read-out: 15 at 1 µM % inhibition
Summary of the method: as §1

ULK1 = ULK1 (Homo sapiens, UniProt O75385); assay: biochemical; parameters: KINOMEscan competition binding panel (Eurofins DiscoverX), single concentration, percent inhibition; conditions: read-out: 15 at 1 µM % inhibition
Summary of the method: as §1

PDGFRB = PDGFRB (Homo sapiens, UniProt P09619); assay: biochemical; parameters: KINOMEscan competition binding panel (Eurofins DiscoverX), single concentration, percent inhibition; conditions: read-out: 15 at 1 µM % inhibition
Summary of the method: as §1

**Q.** With `CNS(=O)(=O)c1ccc(N(C)C)c(Nc2ncnc3cc(OC)c(OC)cc23)c1` [compound 7, 3-((6,7-dimethoxyquinazolin-4-yl)amino)-4-(dimethylamino)-N-methylbenzenesulfonamide] as the compound, how does the inhibition at 1 µM (ZAK) read?
**A.** 93%

**Q.** What about the inhibition at 1 µM (PDFRB) of the same compound?
**A.** 91%

**Q.** For `CNS(=O)(=O)c1ccc(N(C)C)c(Nc2nc(C)nc3cc(OC)c(OC)cc23)c1` [compound 15, 3-((6,7-dimethoxy-2-methylquinazolin-4-yl)amino)-4-(dimethylamino)-N-methylbenzenesulfonamide], which inhibition at 1 µM (PKN1) is on record?
**A.** 5%

**Q.** And the inhibition at 1 µM (NEK3)?
**A.** 0%

**Q.** What about the inhibition at 1 µM (CDK11) of the same compound?
**A.** 13%

**Q.** What about the inhibition at 1 µM (PAK2) of the same compound?
**A.** 14%

**Q.** And the inhibition at 1 µM (NEK1)?
**A.** 1%

**Q.** What about the inhibition at 1 µM (WNK4) of the same compound?
**A.** 0%

**Q.** And the inhibition at 1 µM [1]?
**A.** 0%

**Q.** And the inhibition at 1 µM (MEK3)?
**A.** 22%

**Q.** What about the inhibition at 1 µM (ERBB4) of the same compound?
**A.** 0%

**Q.** What about the inhibition at 1 µM (CDK3) of the same compound?
**A.** 56%

**Q.** And the inhibition at 1 µM (AURKC)?
**A.** 0%

**Q.** What about the inhibition at 1 µM (LRRK2) of the same compound?
**A.** 0%

**Q.** What about the inhibition at 1 µM (EPHA7) of the same compound?
**A.** 27%

**Q.** What about the inhibition at 1 µM (TNK1) of the same compound?
**A.** 35%

**Q.** And the inhibition at 1 µM (CDC2L2)?
**A.** 0%

**Q.** And the inhibition at 1 µM (HIPK1)?
**A.** 7%

**Q.** And the inhibition at 1 µM (NEK7)?
**A.** 2%

**Q.** What about the inhibition at 1 µM (ULK1) of the same compound?
**A.** 31%

**Q.** What about the inhibition at 1 µM (PDGFRB) of the same compound?
**A.** 10%
